*1 amine or outer side, *2 acyl side, *3 side chain or, on linkers, in order; H or OH if unused. Where a SMILES comes first, the peptide text is derived from it. The star is where a group is joined. X1 = O=c1nc(N*)ccn1[C@@H]1O[C@H](CO)[C@@H](O)C1(F)F; Suc = O=C(CCC(=O)[*:2])[*:1]
assay: Substrate activity at ENT1 in human BXPC-3 cells assessed as inhibition of cell growth pretreated with ENT1 inhibitor nitrobenzylthioinosine for 5 mins measured after 72 hrs by SRB assay

Point of comparison: CSCC[C@H](NC(=O)[C@@H](NC(=O)[C@@H]1CCCN1C(=O)[C@H](CC(C)C)NC(=O)[C@H](CCCCN)NC(=O)CCC(=O)Nc1ccn([C@@H]2O[C@H](CO)[C@@H](O)C2(F)F)c(=O)n1)C(C)C)C(=O)N[C@@H](Cc1c[nH]c2ccccc12)C(N)=O ({X1-Suc}-KLPVMW-NH2), IC50 384 nM. Against it:
- CSCC[C@H](NC(=O)[C@H](NC(=O)[C@@H]1CCCN1C(=O)[C@H](CC(C)C)NC(=O)[C@H](CCCCN)NC(=O)[C@@H](N)Cc1c[nH]c2ccccc12)C(C)C)C(N)=O — higher, > 1000 nM
- CSCC[C@H](NC(=O)[C@@H](NC(=O)[C@@H]1CCCN1C(=O)[C@H](CC(C)C)NC(=O)[C@H](CCCCN)NC(=O)[C@H](Cc1c[nH]c2ccccc12)NC(=O)CCC(=O)Nc1ccn([C@@H]2O[C@H](CO)[C@@H](O)C2(F)F)c(=O)n1)C(C)C)C(N)=O ({X1-Suc}-WKLPVM-NH2) — within 1.5-fold, 380 nM
- CC(C)C[C@H](NC(=O)[C@@H](NC(=O)[C@@H]1CCCN1C(=O)[C@@H](NC(=O)[C@H](Cc1c[nH]c2ccccc12)NC(=O)CCC(=O)Nc1ccn([C@@H]2O[C@H](CO)[C@@H](O)C2(F)F)c(=O)n1)C(C)C)[C@@H](C)O)C(=O)N[C@@H](CCCCN)C(N)=O ({X1-Suc}-WVPTLK-NH2) — within 1.5-fold, 381 nM
- H-KLPVMW-NH2 — higher, > 1000 nM
- H-WVPTLK-NH2 — higher, > 1000 nM

— BindingDB's records for doi:10.1039/c9md00489k (University of Porto, 2020)
